Columns and labels:
[1] = system: H3K27me3 demethylase activity; assay: Histone demethylase activity in tumor lysates by ELISA (H3K27me3); format: in vivo; conditions: H1299 T18 xenografts, drug-treated vs vehicle
Description: (§1) To evaluate whether the targeted KDM enzymatic activity was reduced in the JmjC inhibitor-treated tumors in vivo, the inventors measured histone demethylase activity in drug-treated and vehicle-control tumor lysates by ELISA. […] Altogether, the results confirmed reduction of the targeted KDM enzymatic activity with cytostatic/cytotoxic effects in JmjC inhibitor-treated chemoresistant xenografts.

H1299 = assay: Clonogenic survival with ionizing radiation, H1299; format: cell-based, Human; conditions: 16 nM JIB-04; for radiosensitization (clonogenic survival): drug 4 h before IR, 175 nM GSK-J4
Description: (§2) Cells were serially diluted to appropriate concentrations and plated into 60-mm dish in triplicate for 4 h. Then cells were treated with the indicated drugs, and irradiated 4 hours later with graded doses of radiation for concurrent treatment or irradiated and 4 hours later the drugs added for post-treatment. All cells were irradiated at room temperature in ambient air using a 137Cs source (Mark 1-68 irradiator, JL Shepherd & Associated). Surviving colonies were stained with crystal violet approximately 10 to 14 days later and colonies formed with more than 50 cells were counted. Clonogenic fraction of irradiated cells was normalized to the plating efficiency of unirradiated controls. The data are presented as the mean±SD. The curve S=e^−(αD+βD2) was fitted to the experimental data using a least square fit algorithm using the program Sigma Plot 11.0 (Systat Software, Inc.).

[2] = system: H3K9me3 demethylase activity; assay: Histone demethylase activity in tumor lysates by ELISA (H3K9me3); format: in vivo; conditions: H1299 T18 xenografts, drug-treated vs vehicle
Description: as §1

[3] = system: pro-apoptotic/anti-proliferative genes and proliferative/oncogenic genes; assay: qRT-PCR of pro-apoptotic and proliferative genes in treated H1299 T18 cells; format: cell-based, human; conditions: 24 h; JIB-04 0.2 μM or GSK-J4 1 μM
Description: (§3) Total RNA was isolated using RNeasy Plus Mini kit (Qiagen) and cDNA was generated using iScript cDNA synthesis kit (BioRad). For epigenetic enzymes, transcripts were detected by SYBR Green chemistry in real time quantitative PCR assays using validated primers. TBP and GAPDH were used as endogenous controls. […] For all non-epigenetic transcripts, TaqMan probes (Life Technologies) were utilized in multiplex with GAPDH internal reference gene. Additionally, a reference sample containing pooled RNA from normal human and tumor tissues (Stratagene) was used. PCR reactions were run using the ABI 7300 Real-time PCR System and analyzed with the included software. The comparative CT method was used to compute relative mRNA expression.

A549 = assay: Clonogenic survival with ionizing radiation, A549; format: cell-based, Human; conditions: 25 nM JIB-04; for radiosensitization (clonogenic survival): drug 4 h before IR
Description: as §2

H1299 T18 = assay: MTS cell viability assay, H1299 T18 resistant variant vs H1299 Parental; format: cell-based, human; conditions: H1299 T18 vs H1299 Parental
Description: (§4) NSCLC lines were treated with paclitaxel+carboplatin combination, given in a ˜2:3 wt/wt ratio, to mirror the clinical dosage values of ˜225 mg/m2 and ˜330 mg/m2, paclitaxel and carboplatin respectively. Note that considering the molecular weights of the two drugs, this translates to approximately a 1 to 3.4 molar ratio. Drugs were given in cycles, following a drug on/drug off treatment scheme. Each cycle consisted of 4-5 days of drug treatment and drug-free culturing for about 1-2 weeks or more to allow the surviving cells to repopulate the plate. […] Untreated parental cells were simultaneously maintained at all times for comparison. Cell viability was assessed in 96-well plates using standard MTS assays (Promega). Treatment duration in MTS assays was 4 days. Drugs were tested in two- or four-fold serial dilutions, totaling 8 different drug concentrations, with 8 replicates per concentration. Response was validated in multiple replicate plates (n≥3).
(§5) Cell viability was assessed by standard MTS assays using Promega's CellTiter reagents. Eight drug concentrations given as two- or four-fold dilutions were tested for each chemotherapeutic agent. In addition, each experiment contained eight replicates per concentration and the entire assay was performed in multiple replicates (n≥3).

H1355 T16 = assay: MTS cell viability assay, H1355 T16 resistant variant vs H1355 Parental; format: cell-based, human; conditions: H1355 T16 vs H1355 Parental
Description: as §4, §5

53BP1 foci = assay: Immunofluorescence DSB repair kinetics, 53BP1 foci; format: cell-based, Human; conditions: for 53BP1 foci resolution: H1299 and A549, 4 h pretreatment, then IR
Description: NSCLCs were seeded onto Lab-Tek II Chamber Slides (Thermo Fisher) and 24 hours later pretreated with JIB-04 or DMSO for 4 h. Then cells were exposed to a total dose of 2 Gy (γH2AX and 53BP1) or 10 Gy (RAD-51 and DNAPKcs p-T2609) radiation. For knockdown and overexpression experiments H1299 cells were transfected using the Amaxa Nucleofector; program X-005. Specifically, 3×10^6 were transfected with siRNA duplexes targeting JMJD2A, JMJD2B, Jarid1A, Jarid1b, scrambled siRNA (250 nM final concentration) or expression vectors pCMVHA-JMJD2A, pCMVHA-JMJD2B, pCMVHA-Jarid1A, pCMVHA-Jarid1B, PC-2 for 72 hours, followed by quantification of expression or irradiation. Then, cells were fixed in 4% formaldehyde/PBS for 15 min, permeabilized with 0.5% Triton X-100 for 15 min on ice, and blocked with 5% bovine serum albumin in PBS for 1 h. The slides were incubated with an antibody against phospho-Histone γH2AX (1:1000, 3 h at room temperature), 53BP1 (1:500, 3 h at room temperature), Rad-51 (1:500, 48 hs 4° C.) or DNAPKcs p-T2609 (1:500, 48 hs 4° C.). Alexa Fluor 488-conjugated goat anti-Rabbit, […] goat anti-mouse or rhodamine red-conjugated goat anti-mouse secondaries antibodies were used (1:1000, 1 h at room temperature). Slides were mounted in a Vectashield mounting medium containing 4′,6-diamidino-2-phenylindole (DAPI). Cells were analyzed on a Zeiss upright fluorescent microscope.

H1355 T16 xenografts = conditions: for toxicity in treated mice: mouse, in vivo
Description: Animals were housed under standard, sterile conditions at UTSW animal facility. All experiments were carried out under approved IACUC protocols and followed UTSW animal care procedures. For tumor growth rate studies and docetaxel+cisplatin drug response comparisons, 6-8 week old female NOD/SCID mice were used. For all subsequent in vivo drug response studies, 6 week old female athymic nude mice were used (Charles River Labs, Jackson Labs). Experimental details are provided in supplemental information.
Parental and resistant NSCLC cell lines (1×10^6 cells in PBS or RPMI for H1299; 5×10^6 cells in PBS/matrigel for H1355 and HCC4017) were injected subcutaneously into the right flank of mice. Tumor growth was monitored by caliper measurements and tumor volume was calculated by 0.5×length×width^2). Treatment was started when tumors reached ˜150-200 mm3. Drug/Vehicle therapy was given to tumor volume matched pairs. Docetaxel (3 mg/kg) and cisplatin (3 mg/kg) were given i.p. once a week for 3 weeks. […]

ABCB1/MDR1 = assay: qRT-PCR of ABCB1/MDR1 in treated H1299 T18 cells; format: cell-based, human; conditions: for expression of MDR1: H1299 T18 cells
Description: as §3

[4] = SR = [IC50 of Parental]/[IC50 of Resistant]

Q: How did the “H3K27me3 demethylase activity in tumor lysates” value [1] turn out when Clc1ccc(N/N=C(\c2ccccc2)c2ccccn2)nc1 [JIB-04] was run?
A: significantly inhibited

Q: And the “radiosensitization, JIB-04 before IR vs 4 h post-irradiation” value (H1299)?
A: significantly more robust when administering JIB-04 first

Q: And the “radiosensitization (clonogenic survival)” value (H1299)?
A: had a radiosensitization/radioenhancement effect

Q: What about the “H3K9me3 demethylase activity in tumor lysates” value [2] of the same molecule?
A: significantly inhibited

Q: And the pro-apoptotic/anti-proliferative gene expression [3]?
A: up-regulated

Q: What about the proliferative/oncogenic gene expression [3] of the same molecule?
A: downregulated

Q: What about the “radiosensitization, JIB-04 before IR vs 4 h post-irradiation” value (A549) of the same molecule?
A: significantly more robust when administering JIB-04 first

Q: And the “radiosensitization (clonogenic survival)” value (A549)?
A: had a radiosensitization/radioenhancement effect

Q: And the “sensitivity of resistant variant compared to parental cells” value (“sensitivity … compared to parental cells” for short) (H1299 T18)?
A: several-fold hyper-sensitized

Q: What about the “H1299 T18 SR (Selectivity Ratio)” value (H1299 T18; [4]) of the same molecule?
A: 20.3

Q: What about the “sensitivity … compared to parental cells” value (H1355 T16) of the same molecule?
A: higher sensitivity

Q: And the “H1355 T16 SR (Selectivity Ratio)” value (H1355 T16; [4])?
A: 2.8

Q: What about the 53BP1 foci resolution (53BP1 foci) of the same molecule?
A: defective

Q: And the “53BP1 foci formation and resolution” value (53BP1 foci; HCC-95 cells, 35 nM JIB-04 4 h, 2 Gy)?
A: delayed 53BP1 foci formation and resolution

Q: What about the “change in tumor volume relative to treatment start” value (H1355 T16 xenografts; GSK-J4 100 mg/kg i.p. 5x per week, JIB-04 50 mg/kg oral gavage 3x per week, 4 weeks) of the same molecule?
A: significant tumor shrinkage

Q: What about the “toxicity in treated mice” value (H1355 T16 xenografts) of the same molecule?
A: No appreciable toxicity

Q: And the “expression of MDR1” value (ABCB1/MDR1)?
A: not altered

Q: What about the “decrease in ABCB1/MDR1 mRNA expression” value (ABCB1/MDR1; high dose JIB-04 (10×-20×IC50), 24-48 h treatment) of the same molecule?
A: 10-20%

Q: And the “decrease in ABCB1/MDR1 mRNA expression” value (ABCB1/MDR1; low dose JIB-04 (1×IC50), 1 wk treatment)?
A: 10-20%

Q: Which “H3K27me3 demethylase activity in tumor lysates” value [1] does the source give for CCOC(=O)CCNc1cc(N2CCc3ccccc3CC2)nc(-c2ccccn2)n1 [GSK-J4] here?
A: significantly inhibited H3K27me3 demethylase activity

Q: What about the “radiosensitization (clonogenic survival)” value (H1299) of the same molecule?
A: failed to radiosensitize

Q: And the “H3K9me3 demethylase activity in tumor lysates” value [2]?
A: without reducing H3K4me3 or H3K9me3 demethylase activity

Q: And the pro-apoptotic/anti-proliferative gene expression [3]?
A: up-regulated

Q: And the proliferative/oncogenic gene expression [3]?
A: downregulated

Q: And the “radiosensitization (clonogenic survival)” value (A549)?
A: failed to radiosensitize

Q: What about the “sensitivity … compared to parental cells” value (H1299 T18) of the same molecule?
A: higher sensitivity

Q: And the “sensitivity … compared to parental cells” value (H1355 T16)?
A: higher sensitivity

Q: And the 53BP1 foci resolution (53BP1 foci)?
A: not observed

Q: What about the “toxicity in treated mice” value (H1355 T16 xenografts) of the same molecule?
A: No appreciable toxicity

Q: What about the “expression of MDR1” value (ABCB1/MDR1) of the same molecule?
A: not altered
